Data: patent US20260234160A1, “NEW SUBSTITUTED QUINOLINE COMPOUNDS FOR COMBATITNG PHYTOPATHOGENIC FUNGI” (BASF SE, priority 2023, published 2026)

Key:
Sclerotinia sclerotiorum = assay: Preventative fungicidal control of white mold on oilseed rape caused by Sclerotinia sclerotiorum (green house); format: in vivo; conditions: 100 ppm, assessed after 14 days, untreated 100%
Method: The compound was dissolved in a mixture of acetone and/or dimethylsulfoxide and the wetting agent/emulsifier Wettol, which is based on ethoxylated alkylphenoles, in a ratio (volume) solvent-emulsifier of 99 to 1 to give a total volume of 5 ml. Subsequently, water was added to total volume of 100 ml.
This stock solution was then diluted with the described solvent-emulsifier-water mixture to the final concentration given in the table below.
Oilseed rapes were grown in pots to the 13 to 14 leaf stage. These plants were sprayed to runoff with previously described spray solution, containing the concentration of active ingredient or their mixture mentioned in the table below.
The plants could air-dry. The next day the applicated rape petals were fixed with 25 μl of 2.5% methylcellulose on leaf 1 and 2. 25 μl of a spore suspension of Sclerotinia sclerotiorum was pipetted on each fixed rape petal. After 14 days at 20° C. and a relative humidity of 60% the extent of fungal attack on the leaves was visually assessed as % diseased leaf area.

Botrytis cinerea = assay: Activity against the grey mold Botrytis cinerea in the microtiterplate test; format: cell-based; conditions: 31 ppm, MTP, 405 nm, 7 days after inoculation
Method: The active compounds were formulated separately as a stock solution having a concentration of 10000 ppm in dimethyl sulfoxide.
The stock solutions were mixed according to the ratio, pipetted onto a micro titer plate (MTP) and diluted with water to the stated concentrations. A spore suspension of Botrytis cinerea in an aqueous biomalt or yeast-bactopeptone-sodium acetate solution was then added. The plates were placed in a water vapor-saturated chamber at a temperature of 18° C. Using an absorption photometer, the MTPs were measured at 405 nm 7 days after the inoculation.

Corynespora cassiicola = assay: Activity against Corynespora cassiicola in the microtiterplate test; format: cell-based; conditions: 31 ppm, MTP
Method: The active compounds were formulated separately as a stock solution having a concentration of 10000 ppm in dimethyl sulfoxide. The stock solutions were mixed according to the ratio, pipetted onto a micro titer plate (MTP) and diluted with water to the stated concentrations. A spore suspension of the Corynespora cassiicola in an aqueous biomalt or yeast-bactopeptone-sodium acetate solution was then added.

| Structure (SMILES) | growth of the pathogen (% diseased leaf area) (Sclerotinia sclerotiorum) | growth of the pathogen (Botrytis cinerea) [%] | growth of the pathogen (Corynespora cassiicola) [%] |
| --- | --- | --- | --- |
| C[C@@H]1N=C(c2cnc3c(F)cccc3c2)c2ccccc2OC1(C)C [Ex-1, (S)-5-(8-fluoroquinolin-3-yl)-2,2,3-trimethyl-2,3-dihydrobenzo[f][1,4]oxazepane] | less than 1% | 0 |  |
| C[C@@H]1N=C(c2cnc3c(F)cccc3c2)c2cccc(F)c2OC1(C)C [Ex-3, (3S)-9-fluoro-5-(8-fluoro-3-quinolyl)-2,2,3-trimethyl-3H-1,4-benzoxazepine] |  | 0 |  |
| C[C@@H]1N=C(c2cnc3ccccc3c2)c2cccc(F)c2OC1(C)C [Ex-4, (3S)-9-fluoro-2,2,3-trimethyl-5-(3-quinolyl)-3H-1,4-benzoxazepine] |  | 0 | 1 |
